Measured values as given in ChEMBL document CHEMBL1201862, “PubChem BioAssay data set” (2004).
Several values for one entry are separate records, joined by “and”; a condition that tells them apart may be missing. Equal values may be shown once. Activity calls are given as the source filed them.

Key:
[1] = biological target: T1, Oxysterols receptor LXR-beta (Homo sapiens, UniProt P55055); assay type: functional, cell-based;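 also: Cell-based luminescence dose-response assay of agonist activity at LXR, run as a confirmatory counterscreen to a daf-12 agonist screen; HEK293 cells with Gal4-LXR fusion and GAL4-driven luciferase reporter; agonist potency from rising luciferase signal of a Gal4-LXR reporter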
T1 sequence (P55055 whole entry): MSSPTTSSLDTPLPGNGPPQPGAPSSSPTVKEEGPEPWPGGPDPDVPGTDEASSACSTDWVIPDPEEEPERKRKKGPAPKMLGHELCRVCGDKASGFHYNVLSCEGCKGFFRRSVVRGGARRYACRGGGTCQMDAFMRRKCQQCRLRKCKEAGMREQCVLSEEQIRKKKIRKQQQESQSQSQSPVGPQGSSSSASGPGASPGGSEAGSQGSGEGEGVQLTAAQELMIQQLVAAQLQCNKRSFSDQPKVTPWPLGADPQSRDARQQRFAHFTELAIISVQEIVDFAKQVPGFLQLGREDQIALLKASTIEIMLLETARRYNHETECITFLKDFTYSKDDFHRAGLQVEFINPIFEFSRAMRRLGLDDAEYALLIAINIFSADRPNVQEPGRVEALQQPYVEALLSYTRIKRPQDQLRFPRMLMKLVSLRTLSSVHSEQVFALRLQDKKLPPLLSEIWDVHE

Saccharomyces cerevisiae = assay: S. cerevisiae Caspase-1/ASC signal blockers IC50, NALP1 inhibitor project selectivity test (AID 488863); assay type: functional, organism-based
[2] = biological target: NACHT, LRR and PYD domains-containing protein 1 (Homo sapiens, UniProt Q9C000); assay: NALP1 inhibitors in yeast, dose response, luminescent (AID 488860); assay type: functional
[3] = biological target: T2, Voltage-gated N-type calcium channel alpha-1B subunit/Amyloid beta A4 precursor protein-binding family A member 1 (Homo sapiens, UniProt Q00975+Q02410); assay type: protein assay
HEK293 [4] = assay: NOD2 signaling inhibitors in MDP-stimulated cells, cell-based, uHTS, luminescence (AID 2001); assay type: functional; conditions: Homo sapiens
HEK293 [5] = assay: inhibition of NOD1-driven NF-kB reporter – cell-based, luminescence, uHTS, primary screen (AID 1578); assay type: functional; conditions: Homo sapiens
HEK293 [6] = assay: cells; assay type: functional, cell-based; conditions: Homo sapiens
[7] = biological target: T2, Voltage-gated N-type calcium channel alpha-1B subunit/Amyloid beta A4 precursor protein-binding family A member 1; assay type: protein assay; remark: listed apart in the source
HEK293 [8] = assay: cells; assay type: functional, cell-based; conditions: Homo sapiens; remark: listed apart in the source
[9] = biological target: T3, Carboxy-terminal domain RNA polymerase II polypeptide A small phosphatase 1 (Homo sapiens, UniProt Q9GZU7); assay: CTDSP1 inhibitors, concentration-response, biochemical, absorbance readout, ultra-high-throughput screen actives (AID 540297); assay type: functional
T3 sequence (Q9GZU7 whole entry): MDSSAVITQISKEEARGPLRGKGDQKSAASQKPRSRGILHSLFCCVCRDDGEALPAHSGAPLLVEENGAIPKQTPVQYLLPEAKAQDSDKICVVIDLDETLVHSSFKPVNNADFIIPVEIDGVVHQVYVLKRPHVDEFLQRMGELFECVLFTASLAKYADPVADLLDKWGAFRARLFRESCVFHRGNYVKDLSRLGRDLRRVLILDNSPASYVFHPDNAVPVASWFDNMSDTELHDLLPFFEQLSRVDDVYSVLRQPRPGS

[10] = biological target: T4, Tyrosine-protein phosphatase non-receptor type 7 (Homo sapiens, UniProt P35236); assay: redox-active compounds inhibiting HePTP phosphatase – biochemical, fluorescence, mechanism study (AID 2068); assay type: functional
T4 sequence (P35236 whole entry): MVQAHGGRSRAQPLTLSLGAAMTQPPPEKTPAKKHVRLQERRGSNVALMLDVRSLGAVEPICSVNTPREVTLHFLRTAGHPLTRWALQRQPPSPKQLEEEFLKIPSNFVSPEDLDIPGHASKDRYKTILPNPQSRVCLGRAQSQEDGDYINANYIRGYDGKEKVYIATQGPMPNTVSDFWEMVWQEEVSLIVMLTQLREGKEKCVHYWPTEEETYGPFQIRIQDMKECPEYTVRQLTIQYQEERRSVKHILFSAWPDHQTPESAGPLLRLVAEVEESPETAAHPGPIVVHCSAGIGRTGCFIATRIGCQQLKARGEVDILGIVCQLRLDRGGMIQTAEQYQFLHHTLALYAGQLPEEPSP

[11] = biological target: T5, Mitochondrial peptide methionine sulfoxide reductase (Bos taurus, UniProt P54149); assay: Absorbance-based biochemical high throughput dose response assay for activators of Methionine sulfoxide reductase A (MsrA).; assay type: functional
T5 sequence (P54149 whole entry): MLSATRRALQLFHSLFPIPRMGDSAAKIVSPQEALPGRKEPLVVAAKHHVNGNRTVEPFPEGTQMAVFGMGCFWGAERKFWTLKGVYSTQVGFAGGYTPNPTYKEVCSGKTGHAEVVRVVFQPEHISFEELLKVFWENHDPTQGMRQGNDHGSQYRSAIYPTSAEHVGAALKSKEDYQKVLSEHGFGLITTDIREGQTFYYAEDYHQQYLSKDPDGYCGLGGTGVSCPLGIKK

Large T antigen = Large T antigen (Simian virus 40, UniProt P03070); assay type: functional, Betapolyomavirus macacae;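 also: Confirmatory-stage PubChem screen for compounds that inhibit SV40 T antigen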
[12] = biological target: T6, Mannose-6-phosphate isomerase (Homo sapiens, UniProt P34949); assay: phosphomannose isomerase inhibition – biochemical, fluorescence intensity, confirmation (AID 1535)
T6 sequence (P34949 whole entry): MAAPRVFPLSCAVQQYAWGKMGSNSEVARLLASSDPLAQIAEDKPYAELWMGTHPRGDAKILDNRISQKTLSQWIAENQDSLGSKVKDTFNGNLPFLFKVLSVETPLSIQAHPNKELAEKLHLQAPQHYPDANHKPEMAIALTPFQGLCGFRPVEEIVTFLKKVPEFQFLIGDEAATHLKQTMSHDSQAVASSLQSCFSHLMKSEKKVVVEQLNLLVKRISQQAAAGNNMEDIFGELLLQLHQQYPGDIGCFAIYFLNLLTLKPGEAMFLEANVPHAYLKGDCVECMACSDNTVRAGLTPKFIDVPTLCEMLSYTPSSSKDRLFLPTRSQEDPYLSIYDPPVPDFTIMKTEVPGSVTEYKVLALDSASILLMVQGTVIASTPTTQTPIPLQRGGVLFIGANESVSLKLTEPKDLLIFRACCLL

[13] = biological target: DNA dC->dU-editing enzyme APOBEC-3G (Homo sapiens, UniProt Q9HC16); assay: Dose Response confirmation of small molecule APOBEC3G DNA Deaminase Inhibitors via a fluorescence-based single-stranded DNA deaminase assay. [Related pubchem assays (depositor defined):AID493012, AID493028]; assay type: functional
[14] = biological target: Glucose-6-phosphate 1-dehydrogenase (Homo sapiens, UniProt P11413); assay: inhibition of Homo sapiens G6PD, dose series – biochemical, fluorescence, selectivity assay for P. falciparum G6PD inhibitor project, dose response (AID 504792); assay type: functional
[15] = biological target: Eukaryotic translation initiation factor 4E (Mus musculus, UniProt P63073); assay: blockers of eIF4G binding by eIF4E – biochemical, TR-FRET, dose response (AID 855); assay type: functional;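 also: potency for disrupting eIF4E binding to eIF4GI seen as loss of FRET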
[16] = biological target: Phosphoethanolamine/phosphocholine phosphatase (Homo sapiens, UniProt Q8TCT1); assay: SAR assay for compounds that inhibit PHOSPHO1. [Related pubchem assays (depositor defined):AID1545, AID1565, AID1574]
[17] = biological target: T6, Mannose-6-phosphate isomerase; assay: MPI inhibition at elevated mannose 6-phosphate – biochemical, fluorescence intensity, high mannose 6-phosphate, primary screen (AID 1220)
Phosphomannomutase 2 = Phosphomannomutase 2 (Homo sapiens, UniProt O15305); assay: Counter screen SAR assay for PMM2 inhibitors via a fluorescence intensity assay. [Related pubchem assays (depositor defined):AID1545, AID1574]
[18] = biological target: T6, Mannose-6-phosphate isomerase; assay: MPI enzyme activity inhibition – biochemical, fluorescence intensity, coupled assay, primary screen (AID 1209)
[19] = biological target: T6, Mannose-6-phosphate isomerase; assay: Confirmation of compounds inhibiting phosphomannose isomerase (PMI) via a fluorescence intensity assay using a high concentration of mannose 6-phosphate. [Related pubchem assays (depositor defined):AID1209, AID1220, AID1545, AID1553, AID1620]
Hexokinase = biological target: T7, Hexokinase (Trypanosoma brucei, UniProt Q38C41); assay: Confirmation assay for inhibitors of Trypanosoma brucei hexokinase 1-Analogue-first series. [Related pubchem assays (depositor defined):AID1430, AID1632, AID2516, AID2560, AID2579, AID2600, AID449725, AID492951]; assay type: functional
T7 sequence (Q38C41 whole entry): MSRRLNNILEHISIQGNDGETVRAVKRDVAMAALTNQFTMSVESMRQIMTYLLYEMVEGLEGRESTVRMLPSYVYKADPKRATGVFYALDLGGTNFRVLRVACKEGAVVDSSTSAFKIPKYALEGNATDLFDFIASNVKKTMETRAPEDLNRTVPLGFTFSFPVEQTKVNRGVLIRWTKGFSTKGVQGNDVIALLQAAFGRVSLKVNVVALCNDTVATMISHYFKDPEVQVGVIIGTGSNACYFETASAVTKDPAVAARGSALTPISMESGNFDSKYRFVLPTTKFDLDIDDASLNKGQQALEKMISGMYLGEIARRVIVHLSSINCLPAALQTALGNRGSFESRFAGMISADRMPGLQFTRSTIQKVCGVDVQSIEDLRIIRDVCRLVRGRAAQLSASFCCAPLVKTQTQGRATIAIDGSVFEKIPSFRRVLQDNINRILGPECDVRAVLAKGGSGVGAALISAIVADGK

[20] = biological target: Type-1 angiotensin II receptor (Homo sapiens, UniProt P30556); assay: agonist activity at AGTR1 – cell-based, uHTS hits, selectivity assay for APJ receptor agonist project, dose response (AID 488865); assay type: functional;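 also: beta-arrestin recruitment to AT1 measured by enzyme fragment complementation luminescence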
[21] = biological target: T8, Runt-related transcription factor 1/Core-binding factor subunit beta (Homo sapiens, UniProt Q01196+Q13951); assay: Runt domain/CBFb-SMMHC interaction disruptors – biochemical, TR-FRET (AID 1438); assay type: protein assay
[22] = biological target: T8, Runt-related transcription factor 1/Core-binding factor subunit beta; assay: disruptors of Runt domain/CBFb-SMMHC interaction – biochemical, FRET, Cerulean-Runt, Venus-CBFb-SMMHC, uHTS, […] (AID 1434); assay type: protein assay
[23] = RanGTP/importin-beta interaction disruptors – biochemical, plate reader, dry powder, dose response (AID 493048); design: species or system Homo sapiens
[24] = decrease of insulin promoter-GFP reporter – imaging, high-content screening, mouse beta cells (AID 1628); assay type: functional; conditions: MIN6
Importin subunit alpha-1 = Importin subunit alpha-1 (Homo sapiens, UniProt P52292); assay: compounds lowering YIC probe YFP/CFP ratio – biochemical, dry powder samples, FRET, counter-screen for RanGTP-importin-beta inhibitor project, dose response (AID 493094); assay type: functional
[25] = MIN6 cell viability loss – mouse insulinoma, cytotoxicity control, dose response (AID 2122); assay type: functional;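 also: confirmatory high-throughput counterscreen run to flag cytotoxic compounds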
[26] = NIH3T3 cell viability loss – ATP luminescence, mouse fibroblasts, counter-screen, dose response (AID 2010); assay type: functional, cell-based;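 also: cells exposed to compound for about 90 hours before reading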
[27] = Trypanosoma cruzi growth suppression in host cells – NIH3T3 host cells, beta-gal luminescence, confirmation (AID 2044); assay type: functional, cell-based;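 also: intracellular parasites grown in NIH/3T3 mouse fibroblasts as host cells; luminescent beta-galactosidase reporter signal from transgenic T. cruzi replicating inside host cells; inhibitors lower the luminescence signal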
[28] = biological target: Nucleotide-binding oligomerization domain-containing protein 1 (Homo sapiens, UniProt Q9Y239); assay: blockers of NOD1 pathway activity – revised, SAR follow-up (AID 2333); assay type: functional
[29] = biological target: Nucleotide-binding oligomerization domain-containing protein 2 (Homo sapiens, UniProt Q9HC29); assay: inhibition of NOD2-driven NF-kB reporter – cell-based, luminescence, uHTS, HEK293 (AID 1566); assay type: functional
Tumor necrosis factor = Tumor necrosis factor (Homo sapiens, UniProt P01375); assay: analog potency on TNFa NF-kB signaling – cell-based, revised, SAR follow-up (AID 2337); assay type: functional
[30] = biological target: Voltage-dependent T-type calcium channel subunit alpha-1H (Homo sapiens, UniProt O95180); assay: human CACNA1H calcium influx blockade – cell-based, synthetic library set 1, calcium flux (AID 493022); assay type: functional

T2 sequence (Q00975 whole entry): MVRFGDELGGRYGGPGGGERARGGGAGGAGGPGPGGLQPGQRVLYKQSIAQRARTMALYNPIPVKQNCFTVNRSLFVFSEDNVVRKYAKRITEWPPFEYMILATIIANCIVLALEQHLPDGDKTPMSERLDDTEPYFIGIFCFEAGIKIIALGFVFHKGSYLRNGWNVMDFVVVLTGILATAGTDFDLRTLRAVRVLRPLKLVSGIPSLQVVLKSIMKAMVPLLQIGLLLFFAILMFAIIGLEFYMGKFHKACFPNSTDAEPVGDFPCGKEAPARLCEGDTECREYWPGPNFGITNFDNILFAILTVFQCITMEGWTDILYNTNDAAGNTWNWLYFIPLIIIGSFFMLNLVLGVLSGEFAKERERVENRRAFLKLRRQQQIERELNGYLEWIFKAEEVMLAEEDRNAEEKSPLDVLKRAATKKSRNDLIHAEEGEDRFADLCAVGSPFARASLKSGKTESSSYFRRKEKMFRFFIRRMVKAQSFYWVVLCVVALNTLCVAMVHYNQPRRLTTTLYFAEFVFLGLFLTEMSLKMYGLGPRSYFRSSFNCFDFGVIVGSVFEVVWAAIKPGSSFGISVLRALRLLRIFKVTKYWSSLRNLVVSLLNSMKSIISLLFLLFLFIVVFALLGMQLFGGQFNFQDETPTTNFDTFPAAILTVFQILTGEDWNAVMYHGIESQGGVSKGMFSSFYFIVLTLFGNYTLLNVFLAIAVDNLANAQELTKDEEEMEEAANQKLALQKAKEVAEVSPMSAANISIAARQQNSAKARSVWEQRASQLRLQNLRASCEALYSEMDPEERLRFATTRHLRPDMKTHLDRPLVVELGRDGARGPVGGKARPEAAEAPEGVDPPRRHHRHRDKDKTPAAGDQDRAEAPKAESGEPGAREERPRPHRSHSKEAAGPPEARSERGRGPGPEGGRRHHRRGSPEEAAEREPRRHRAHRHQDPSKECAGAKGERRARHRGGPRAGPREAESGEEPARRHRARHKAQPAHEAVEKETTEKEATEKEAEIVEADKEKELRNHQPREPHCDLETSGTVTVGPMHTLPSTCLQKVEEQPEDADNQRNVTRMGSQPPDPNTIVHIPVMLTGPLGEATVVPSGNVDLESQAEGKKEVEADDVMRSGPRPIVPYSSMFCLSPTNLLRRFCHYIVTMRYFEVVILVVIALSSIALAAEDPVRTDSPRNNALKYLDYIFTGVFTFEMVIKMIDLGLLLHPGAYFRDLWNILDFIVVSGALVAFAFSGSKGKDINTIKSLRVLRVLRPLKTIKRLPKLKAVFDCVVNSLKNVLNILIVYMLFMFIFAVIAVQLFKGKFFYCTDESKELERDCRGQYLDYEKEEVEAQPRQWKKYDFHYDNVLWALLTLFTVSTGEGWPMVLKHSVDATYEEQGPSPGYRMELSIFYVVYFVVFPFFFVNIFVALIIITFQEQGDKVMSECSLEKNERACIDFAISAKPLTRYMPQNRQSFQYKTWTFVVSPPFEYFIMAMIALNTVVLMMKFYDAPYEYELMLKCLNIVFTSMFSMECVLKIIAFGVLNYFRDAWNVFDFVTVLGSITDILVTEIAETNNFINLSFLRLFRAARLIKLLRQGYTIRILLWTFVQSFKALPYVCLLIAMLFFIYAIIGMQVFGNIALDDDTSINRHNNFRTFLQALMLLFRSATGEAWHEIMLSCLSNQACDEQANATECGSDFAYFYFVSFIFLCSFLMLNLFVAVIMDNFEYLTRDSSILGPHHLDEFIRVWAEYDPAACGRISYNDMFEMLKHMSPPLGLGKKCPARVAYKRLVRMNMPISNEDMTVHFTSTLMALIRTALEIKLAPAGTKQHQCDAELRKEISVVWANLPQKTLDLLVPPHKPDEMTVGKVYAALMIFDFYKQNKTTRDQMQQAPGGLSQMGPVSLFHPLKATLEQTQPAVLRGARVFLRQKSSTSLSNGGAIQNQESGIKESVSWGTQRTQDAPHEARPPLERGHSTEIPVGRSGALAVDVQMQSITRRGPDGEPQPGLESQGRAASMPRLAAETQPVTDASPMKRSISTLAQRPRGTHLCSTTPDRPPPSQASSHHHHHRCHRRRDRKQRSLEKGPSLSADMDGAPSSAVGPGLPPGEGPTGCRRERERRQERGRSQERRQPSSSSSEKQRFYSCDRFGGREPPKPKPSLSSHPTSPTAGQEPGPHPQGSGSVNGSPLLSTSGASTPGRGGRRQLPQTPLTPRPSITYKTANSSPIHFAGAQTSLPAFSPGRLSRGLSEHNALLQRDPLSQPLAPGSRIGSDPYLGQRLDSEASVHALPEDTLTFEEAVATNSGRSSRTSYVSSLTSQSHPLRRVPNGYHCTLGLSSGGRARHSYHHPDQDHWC
T2 sequence (Q02410 whole entry): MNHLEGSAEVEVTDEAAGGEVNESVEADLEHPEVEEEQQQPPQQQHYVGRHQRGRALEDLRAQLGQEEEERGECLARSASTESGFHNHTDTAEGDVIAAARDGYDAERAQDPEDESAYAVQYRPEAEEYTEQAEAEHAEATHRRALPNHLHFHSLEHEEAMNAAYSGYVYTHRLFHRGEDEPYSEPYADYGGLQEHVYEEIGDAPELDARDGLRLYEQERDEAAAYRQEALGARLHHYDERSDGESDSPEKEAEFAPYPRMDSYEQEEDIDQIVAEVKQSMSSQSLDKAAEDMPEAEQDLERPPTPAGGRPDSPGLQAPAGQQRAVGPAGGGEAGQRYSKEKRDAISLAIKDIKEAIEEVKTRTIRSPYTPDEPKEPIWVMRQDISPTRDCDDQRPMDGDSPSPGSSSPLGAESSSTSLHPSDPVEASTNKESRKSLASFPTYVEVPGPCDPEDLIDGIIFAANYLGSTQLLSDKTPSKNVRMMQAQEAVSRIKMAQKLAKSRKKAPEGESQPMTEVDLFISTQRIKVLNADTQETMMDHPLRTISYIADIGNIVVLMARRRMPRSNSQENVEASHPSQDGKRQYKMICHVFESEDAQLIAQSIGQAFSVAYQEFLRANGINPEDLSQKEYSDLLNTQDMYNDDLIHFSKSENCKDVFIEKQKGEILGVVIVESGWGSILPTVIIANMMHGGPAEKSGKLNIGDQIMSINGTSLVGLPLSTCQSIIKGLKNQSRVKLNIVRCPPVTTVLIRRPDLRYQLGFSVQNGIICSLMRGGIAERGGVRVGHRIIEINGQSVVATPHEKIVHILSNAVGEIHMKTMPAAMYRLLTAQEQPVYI
Chain of Phosphoethanolamine/phosphocholine phosphatase (Q8TCT1 whole entry): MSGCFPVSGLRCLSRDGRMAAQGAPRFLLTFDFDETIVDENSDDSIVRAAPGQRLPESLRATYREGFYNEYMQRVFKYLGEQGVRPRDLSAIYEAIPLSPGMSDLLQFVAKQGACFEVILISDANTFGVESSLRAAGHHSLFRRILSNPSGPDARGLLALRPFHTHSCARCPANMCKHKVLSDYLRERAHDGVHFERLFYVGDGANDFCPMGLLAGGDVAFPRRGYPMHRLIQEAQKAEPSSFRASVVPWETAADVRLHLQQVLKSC
T8 sequence (Q01196 whole entry, the tested form may be a part): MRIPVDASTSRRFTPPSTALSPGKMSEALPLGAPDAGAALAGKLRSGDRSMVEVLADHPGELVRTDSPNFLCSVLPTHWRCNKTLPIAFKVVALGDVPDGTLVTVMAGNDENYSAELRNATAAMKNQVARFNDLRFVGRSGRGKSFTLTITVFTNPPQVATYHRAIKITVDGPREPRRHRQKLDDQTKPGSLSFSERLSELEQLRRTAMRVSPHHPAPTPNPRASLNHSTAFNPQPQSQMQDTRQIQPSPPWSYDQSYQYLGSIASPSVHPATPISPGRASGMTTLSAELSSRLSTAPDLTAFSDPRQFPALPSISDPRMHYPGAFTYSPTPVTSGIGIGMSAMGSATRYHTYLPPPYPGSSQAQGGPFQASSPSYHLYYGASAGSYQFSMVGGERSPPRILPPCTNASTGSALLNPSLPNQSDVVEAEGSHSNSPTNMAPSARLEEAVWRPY
T8 sequence (Q13951 whole entry, the tested form may be a part): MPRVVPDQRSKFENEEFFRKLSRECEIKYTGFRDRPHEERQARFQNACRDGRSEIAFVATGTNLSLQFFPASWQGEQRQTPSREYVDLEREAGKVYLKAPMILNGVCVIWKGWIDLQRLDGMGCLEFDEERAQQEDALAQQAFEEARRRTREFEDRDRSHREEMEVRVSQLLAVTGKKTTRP
Chain of Phosphomannomutase 2 (O15305 whole entry): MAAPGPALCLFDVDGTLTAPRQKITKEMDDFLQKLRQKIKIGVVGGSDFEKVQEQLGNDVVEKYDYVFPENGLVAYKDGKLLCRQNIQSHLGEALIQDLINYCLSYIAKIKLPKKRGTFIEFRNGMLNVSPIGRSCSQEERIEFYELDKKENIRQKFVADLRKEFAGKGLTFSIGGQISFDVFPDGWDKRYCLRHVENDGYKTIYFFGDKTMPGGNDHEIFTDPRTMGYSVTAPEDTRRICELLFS
Chain of Eukaryotic translation initiation factor 4E (P63073 whole entry): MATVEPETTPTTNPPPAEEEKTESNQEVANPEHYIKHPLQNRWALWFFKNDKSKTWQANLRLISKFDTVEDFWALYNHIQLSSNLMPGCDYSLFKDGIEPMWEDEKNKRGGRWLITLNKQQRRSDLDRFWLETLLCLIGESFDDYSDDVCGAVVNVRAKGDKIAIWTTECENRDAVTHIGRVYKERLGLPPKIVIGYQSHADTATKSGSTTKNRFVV
Chain of Tumor necrosis factor (P01375 whole entry): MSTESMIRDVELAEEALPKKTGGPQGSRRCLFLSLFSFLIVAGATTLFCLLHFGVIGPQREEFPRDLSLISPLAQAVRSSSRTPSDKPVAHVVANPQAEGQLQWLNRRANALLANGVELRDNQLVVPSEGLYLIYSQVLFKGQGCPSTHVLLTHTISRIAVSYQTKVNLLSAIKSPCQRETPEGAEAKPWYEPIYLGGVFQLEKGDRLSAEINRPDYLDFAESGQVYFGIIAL

SMILES: CSc1nnc(-c2cc3c(s2)-c2ccccc2CC3)o1
- EC50 [1]: > 67.5 µM (inactive)
- IC50 (Saccharomyces cerevisiae): > 100 µM (inactive)
- IC50 [2]: > 100 µM (inactive)
- EC50 (cells): > 67.5 µM (inactive)

SMILES: COc1ccc2cc3c(N)nn(C(=O)c4ccc(Cl)c([N+](=O)[O-])c4)c3nc2c1
- IC50 [3]: 16.1 µM (active)
- IC50 (HEK293 [4]): 2.29 µM (active)
- EC50 (HEK293 [5]): 3.5 µM (active)
- IC50 (HEK293 [6]): > 20 µM (inactive)
- IC50 [7]: 28.7 µM (active)
- IC50 (HEK293 [8]): 1.71 µM (active)
- IC50 [9]: 1.72 µM (active)

SMILES: O=C(Nc1ccc2nc(-c3ccco3)c(-c3ccco3)nc2c1)Nc1cccc2ccccc12
- IC50 [10]: 1.26 µM (active)

SMILES: CN(C)S(=O)(=O)c1cccc(-n2sc3ccccc3c2=O)c1
- EC50 [11]: > 104 µM (inactive)
- IC50 (Large T antigen): 13.3 µM (active)
- IC50 [12]: 2.79 µM (active) and 7.06 µM (active)
- IC50 [13]: 9.11 µM (active)
- IC50 [14]: 12.4 µM (active)
- IC50 [15]: 13 µM (active)
- IC50 [16]: 495 nM (active) and 457 nM (active)
- IC50 [17]: 11.7 µM (active)
- IC50 (Phosphomannomutase 2): 13.5 µM (active) and 12.9 µM (active)
- IC50 [18]: 5.25 µM (active)
- IC50 [19]: 16.4 µM (active)
- IC50 (Hexokinase): 7.63 µM (active)

SMILES: NC(=NOS(=O)(=O)c1ccc2ccccc2c1)c1ccncc1
- EC50 [20]: > 100 µM (inactive)

SMILES: COc1ccc(OC)c(S(=O)(=O)N(C(C)=O)c2ccc3oc(=O)sc3c2)c1
- IC50 [21]: > 100 µM (inactive)
- IC50 [22]: > 100 µM (inactive)

SMILES: CCOCCCn1c(=N)c(C(=O)NCc2ccc3c(c2)OCO3)cc2c(=O)n3cccc(C)c3nc21
- AC50 [23]: 227 µM (active)
- IC50 [24]: 1.54 µM (active)
- AC50 (Importin subunit alpha-1): 135 µM (active)
- IC50 [25]: 5.17 µM (active)
- EC50 [26]: > 60 µM (not active)
- EC50 [27]: 1.27 µM (active)

SMILES: O=C(CSc1nc2scc(-c3ccccc3)c2c(=O)[nH]1)Nc1ccccc1
- IC50 [28]: 2.83 µM (active)
- EC50 [29]: 0.95 µM (active)
- IC50 (Tumor necrosis factor): 1.96 µM (active)

SMILES: CC(Oc1ccccc1)C(=O)Nc1nnc(-c2ccc3ccccc3c2)o1 (configuration not stated)
- EC50 [30]: 2.7 µM (active)
